Test results as given in patent US20260317324A1, “BIFUNCTIONAL COMPOUNDS FOR DEGRADING BRAF VIA UBIQUITIN PROTEOSOME PATHWAY” (Nurix Therapeutics, Inc., priority 2023, published 2026).

Legend:
Type in all cases: cell-based
BRAF G466V = target: T1, BRAF G466V (Homo sapiens, UniProt P15056, G466V); test: BRAF HiBiT degradation assay, C-terminal HiBiT-tagged BRAF G466V overexpressed in HCT-116 BRAF−/− cells (clone 8), Nano-Glo HiBiT Lytic assay
T1 construct: Horizon Discovery (HCT-116 BRAF−/− cells); host or cells: HCT-116 BRAF−/− cells, clone 8, lentiviral transduction
T1 sequence (P15056 whole entry G466V): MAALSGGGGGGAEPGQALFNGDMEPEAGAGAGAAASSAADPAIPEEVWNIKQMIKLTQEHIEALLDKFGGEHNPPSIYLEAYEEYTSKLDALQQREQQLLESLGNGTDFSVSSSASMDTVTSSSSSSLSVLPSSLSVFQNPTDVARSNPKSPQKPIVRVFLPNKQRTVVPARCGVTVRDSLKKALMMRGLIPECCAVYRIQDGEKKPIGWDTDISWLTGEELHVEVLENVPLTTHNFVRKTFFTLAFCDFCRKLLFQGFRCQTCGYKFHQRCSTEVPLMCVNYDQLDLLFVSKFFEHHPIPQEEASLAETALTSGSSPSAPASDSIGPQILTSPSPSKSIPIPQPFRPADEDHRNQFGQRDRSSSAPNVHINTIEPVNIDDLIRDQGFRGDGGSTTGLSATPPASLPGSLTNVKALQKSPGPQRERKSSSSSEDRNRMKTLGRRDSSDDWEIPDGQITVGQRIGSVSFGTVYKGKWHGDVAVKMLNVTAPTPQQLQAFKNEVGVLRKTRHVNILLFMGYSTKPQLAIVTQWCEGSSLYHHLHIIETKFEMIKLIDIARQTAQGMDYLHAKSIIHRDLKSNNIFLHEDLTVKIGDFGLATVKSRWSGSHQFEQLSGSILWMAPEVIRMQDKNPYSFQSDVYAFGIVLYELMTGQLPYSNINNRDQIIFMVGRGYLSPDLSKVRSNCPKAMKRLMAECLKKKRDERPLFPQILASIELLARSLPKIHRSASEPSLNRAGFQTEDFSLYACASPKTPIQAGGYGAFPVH
Method in brief: (§1)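 HCT-116 BRAF−/− cells stably expressing the tagged mutant were seeded at 3,000 cells/well and grown 24 h at 37 °C before an 11-point half-log series from 1 μM to 0.01 nM, run in duplicate at 0.2% DMSO. Lytic HiBiT luminescence gave % protein remaining versus DMSO controls; DC50 was the fitted concentration at 50%.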

BRAF G469A = target: T2, BRAF G469A (Homo sapiens, UniProt P15056, G469A); test: BRAF HiBiT degradation assay, C-terminal HiBiT-tagged BRAF G469A overexpressed in HCT-116 BRAF−/− cells (clone 34), Nano-Glo HiBiT Lytic assay
T2 construct: Horizon Discovery (HCT-116 BRAF−/− cells); host or cells: HCT-116 BRAF−/− cells, clone 34, lentiviral transduction
T2 sequence (P15056 whole entry G469A): as the sequence (P15056 whole entry G466V) above, with V466G, G469A counted along it
Method in brief: as §1

BRAF V600E = target: T3, BRAF V600E (Homo sapiens, UniProt P15056, V600E); test: BRAF HiBiT degradation assay, C-terminal HiBiT-tagged BRAF V600E A375 cells (clone 1F10), Nano-Glo HiBiT Lytic assay; settings: for Dmax: A-375
T3 construct: endogenous C-terminal HiBiT fusion tag on BRAF V600E allele; endogenous in cells; host or cells: A375 clone 1F10 (CRISPR-Cas9 knock-in of the HiBiT tag; parental A375 from ATCC)
T3 sequence (P15056 whole entry V600E, the tested form may be a part): as the sequence (P15056 whole entry G466V) above, with V466G, V600E counted along it
Method in brief: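 A375 cells with CRISPR knock-in C-terminal HiBiT on endogenous BRAF V600E (clone 1F10) were seeded and cultured 24 h at 37 °C, then dosed with an 11-point half-log series (1 μM to 0.01 nM, duplicate, 0.2% DMSO). Lytic HiBiT luminescence gave % protein remaining; DC50 was the fitted concentration at 50%.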

BRAF D594G = target: T4, BRAF D594G (Homo sapiens, UniProt P15056, D594G); test: BRAF HiBiT degradation assay, C-terminal HiBiT-tagged BRAF D594G overexpressed in HCT-116 BRAF−/− cells (clone 63), Nano-Glo HiBiT Lytic assay
T4 construct: Horizon Discovery (HCT-116 BRAF−/− cells); host or cells: HCT-116 BRAF−/− cells, clone 63, lentiviral transduction
T4 sequence (P15056 whole entry D594G): as the sequence (P15056 whole entry G466V) above, with V466G, D594G counted along it
Method in brief: as §1

[1] = BRAF G466V (Class 3), HCT-116 BRAF−/− cells, DC50 at 50% degradation
[2] = BRAF G466V (Class 3), HCT-116 BRAF−/− cells, observed Dmax relative to DMSO control
[3] = BRAF G469A (Class 2), HCT-116 BRAF−/− cells, DC50 at 50% degradation
[4] = BRAF G469A (Class 2), HCT-116 BRAF−/− cells, observed Dmax relative to DMSO control
[5] = A375 (BRAF V600E, Class 1), DC50 at 50% degradation
[6] = A375 (BRAF V600E, Class 1), observed Dmax, % protein degraded relative to DMSO control
[7] = BRAF D594G (Class 3), HCT-116 BRAF−/− cells, DC50 at 50% degradation
[8] = BRAF D594G (Class 3), HCT-116 BRAF−/− cells, observed Dmax relative to DMSO control
[9] = BRAF G466V, DC50 at 50%: fitted conc. at Y=50
[10] = HCT-116, BRAF G466V, percentage protein degraded at maximal compound effect relative to DMSO
[11] = Class 2, BRAF G469A, DC50 at 50%: fitted conc. at Y=50
[12] = HCT-116, Class 2, BRAF G469A, percentage protein degraded at maximal compound effect relative to DMSO
[13] = A375 (BRAF V600E), DC50 at 50%: fitted conc. at Y=50
[14] = A375 (BRAF V600E), percentage protein degraded at maximal compound effect relative to DMSO
[15] = BRAF D594G, DC50 at 50%: fitted conc. at Y=50
[16] = HCT-116, BRAF D594G, percentage protein degraded at maximal compound effect relative to DMSO

Compound | DC50 (BRAF G466V; [1]) [nM] | Dmax (BRAF G466V; [2]) [%] | DC50 (BRAF G469A; [3]) [nM] | Dmax (BRAF G469A; [4]) [%] | DC50 (BRAF V600E; [5]) [nM] | Dmax (BRAF V600E; [6]) [%] | DC50 (BRAF D594G; [7]) [nM] | Dmax (BRAF D594G; [8]) [%] | DC50 (BRAF G466V; [9]) [nM] | Dmax (BRAF G466V; [10]) [%] | DC50 (BRAF G469A; [11]) [nM] | Dmax (BRAF G469A; [12]) [%] | DC50 (BRAF V600E; [13]) [nM] | Dmax (BRAF V600E; [14]) [%] | DC50 (BRAF D594G; [15]) [nM] | Dmax (BRAF D594G; [16]) [%]
CCCS(=O)(=O)Nc1cc(Cl)cc(-c2cn(-c3ccc(N4CCN(CC5CCN(c6ccc(C7CCC(=O)NC7=O)cn6)CC5)[C@@H](C)C4)cc3)nc2-c2ccncc2)c1F (mixture of isomers) [Compound 279, N-[5-chloro-3-(1-{4-[(3S)-4-[(1-{5-[(3RS)-2,6-dioxopiperidin-3-yl]pyridin-2-yl}piperidin-4-yl)methyl]-3-methylpiperazin-1-yl]phenyl}-3-(pyridin-4-yl)-1H-pyrazol-4-yl)-2-fluorophenyl]propane-1-sulfonamide] | < 10 | > 70 | 10 to 50 | 30 to 70 | < 10 | > 70 | < 10 | 30 to 70 |  |  |  |  |  |  |  | 
O=C1CC[C@H](c2ccc(N3CCC(CN4CCN(c5ccc(-n6cc(-c7cc(Cl)cc(NS(=O)(=O)N8CCCC8)c7F)c(-c7ccncc7)n6)cc5)CC4)CC3)cc2F)C(=O)N1 [Compound 344, N-{5-chloro-3-[1-(4-{4-[(1-{4-[(3R)-2,6-dioxopiperidin-3-yl]-3-fluorophenyl}piperidin-4-yl)methyl]piperazin-1-yl}phenyl)-3-(pyridin-4-yl)-1H-pyrazol-4-yl]-2-fluorophenyl}pyrrolidine-1-sulfonamide] | < 10 | > 70 | < 10 | > 70 | < 10 | > 70 | < 10 | > 70 |  |  |  |  |  |  |  | 
CCCS(=O)(=O)Nc1cccc(-c2nc(C(C)(C)C)sc2-c2ccnc(NCC(C)(C)C3CCN(CC4CCN(c5ccc(C(=O)N[C@H]6CCC(=O)NC6=O)nc5)CC4)CC3)n2)c1F [Compound 146, 5-{4-[(4-{1-[(4-{2-tert-butyl-4-[2-fluoro-3-(propane-1-sulfonamido)phenyl]-1,3-thiazol-5-yl}pyrimidin-2-yl)amino]-2-methylpropan-2-yl}piperidin-1-yl)methyl]piperidin-1-yl}-N-[(3S)-2,6-dioxopiperidin-3-yl]pyridine-2-carboxamide] |  |  |  |  |  |  |  |  | < 10 | 30 to 70 | > 500 | 30 to 70 | 50 to 500 | 30 to 70 | > 500 | 30 to 70
CCCS(=O)(=O)Nc1cccc(-c2nc(C3CCN(C(=O)C4CCN(CC5CCN(c6ccc([C@H]7CCC(=O)NC7=O)cc6)CC5)CC4)CC3)sc2-c2ccnc(NC)n2)c1F [Compound 204, N-{3-[2-(1-{1-[(1-{4-[(3R)-2,6-dioxopiperidin-3-yl]phenyl}piperidin-4-yl)methyl]piperidine-4-carbonyl}piperidin-4-yl)-5-[2-(methylamino)pyrimidin-4-yl]-1,3-thiazol-4-yl]-2-fluorophenyl}propane-1-sulfonamide] |  |  |  |  |  |  |  |  | > 500 | 30 to 70 | > 500 | 30 to 70 | < 10 | > 70 | > 500 | 30 to 70

More lines, now with the values ahead:

DC50 (BRAF G466V; [1]) [nM] | Dmax (BRAF G466V; [2]) [%] | DC50 (BRAF G469A; [3]) [nM] | Dmax (BRAF G469A; [4]) [%] | DC50 (BRAF V600E; [5]) [nM] | Dmax (BRAF V600E; [6]) [%] | DC50 (BRAF D594G; [7]) [nM] | Dmax (BRAF D594G; [8]) [%] | DC50 (BRAF G466V; [9]) [nM] | Dmax (BRAF G466V; [10]) [%] | DC50 (BRAF G469A; [11]) [nM] | Dmax (BRAF G469A; [12]) [%] | DC50 (BRAF V600E; [13]) [nM] | Dmax (BRAF V600E; [14]) [%] | DC50 (BRAF D594G; [15]) [nM] | Dmax (BRAF D594G; [16]) [%] | Compound
< 10 | > 70 | > 500 | 30 to 70 | < 10 | > 70 | < 10 | 30 to 70 |  |  |  |  |  |  |  |  | O=C1CCN(c2ccc(N3CCC(CN4CCN(c5ccc(-n6cc(-c7cc(Cl)cc(NS(=O)(=O)N8CCCC8)c7F)c(-c7ccncc7)n6)cc5F)CC4)CC3)cc2)C(=O)N1 [Compound 361, N-[5-chloro-3-(1-{4-[4-({1-[4-(2,4-dioxo-1,3-diazinan-1-yl)phenyl]piperidin-4-yl}methyl)piperazin-1-yl]-3-fluorophenyl}-3-(pyridin-4-yl)-1H-pyrazol-4-yl)-2-fluorophenyl]pyrrolidine-1-sulfonamide]
10 to 50 | > 70 | 50 to 500 | 30 to 70 | 10 to 50 | > 70 | 10 to 50 | 30 to 70 |  |  |  |  |  |  |  |  | O=C1CCC(c2cc(F)c(N3CCC(CN4CCN(c5ccc(-n6cc(-c7cc(Cl)cc(NS(=O)(=O)N8CCCC8)c7F)c(-c7ccncc7)n6)cc5)CC4)CC3)cc2F)C(=O)N1 (racemic) [Compound 386, Rac-N-{5-chloro-3-[1-(4-{4-[(1-{4-[(3R)-2,6-dioxopiperidin-3-yl]-2,5-difluorophenyl}piperidin-4-yl)methyl]piperazin-1-yl}phenyl)-3-(pyridin-4-yl)-1H-pyrazol-4-yl]-2-fluorophenyl}pyrrolidine-1-sulfonamide]
